# Reference: paper PMC11996864, “A small-molecule inhibitor of BCL10-MALT1 interaction abrogates progression of diffuse large B cell lymphoma” (The Journal of Clinical Investigation, 2025)
# pIC50: −log10 of the molar value. Values joined by “and” are separate entries in the source; they are usually repeats but may differ in a detail not shown here. Identical values can stand only once.
# Columns and labels:
# C57BL/6 mice = assay: Long-term (28 days) in vivo toxicity; parameters: species or system mouse
# Method: Long-term in vivo toxicity experiments. WT C57/BL6 (The Jackson Laboratory) male and female mice were treated daily with 50 mg/kg M1i-124 or vehicle control for 28 days. At the time of sacrifice, blood was obtained for complete blood count, alanine transaminase, albumin, and total bilirubin (Abaxis). Livers from control and M1i-124 treated mice were collected for H&E analysis. […]
# VEGFR2 = biological target: T1, VEGFR2 (Homo sapiens, UniProt P35968); assay: SAFETYscan78 off-target screen; details: off-target panel; read-out: EC50 or IC50, VEGFR2
# T1 construct: Eurofins SAFETYscan78
# Excerpt: We also tested for possible adverse actions of M1i-124 on cytochrome P450 (CYP) enzymes that might limit its use in vivo. The CYP family of enzymes are responsible for phase I metabolism of many drugs and endogenous substances, and their inhibition can lead to unanticipated toxicities. […] To further test for potential off-target effects of M1i-124, we conducted an in vitro safety pharmacology profiling screen that measures the ability of a candidate compound to inhibit 78 key GPCRs, ion channels, nuclear hormone receptors, neurotransmitter transporters, kinases, and non-kinase enzymes. […]
# cological profile for M1i-124. EC50 or I C50 f or act i vi t y agai nst sel ect GPCRs, i on channel s, nucl ear hor mone r eceptor s, ki nases, and neur otr ansmi tter tr anspor ter s i n an off-target activity screen of M1i-124 (Eurofins SAFETYscan78). When unmeasurable, the EC50 or IC50 for an indicated target is listed as >10 […]
# (1 picture or pasted object on this page, not shown here)
# OCI-Ly7 cells = assay: Apoptosis, annexin staining flow cytometry; format: cell-based, human
# OCI-Ly1 xenografts = assay: OCI-Ly1 xenograft in NSG mice; format: in vivo, mouse; details: daily i.p., result in words
# Excerpt: TMD8 cells were engrafted into 8-week-old female NOD.CB17-Prkdc^scid/J (NOD-SCID) mice from The Jackson Laboratory by subcutaneous injection of 10 × 10^6 cells resuspended in 50% Cultrex Basement Membrane Extract (R&D Systems, catalog 3632-010-02) into the right flank. OCI-Ly3 cells were engrafted into 5-week-old female NOD.Cg-Prkdc^scid Il2rg^tm1Wjl/SzJ (NSG) mice from The Jackson Laboratory by subcutaneous injection of 2.5 × 10^6 cells resuspended in Cultrex as above. OCI-Ly1 cells were engrafted into 6.5-week-old female NSG mice from The Jackson Laboratory by subcutaneous injection of 20 × 10^6 cells resuspended in Cultrex as above. For all xenograft models, when tumors reached an average volume of 100 mm^3, mice were randomized to receive M1i-124 (50 mg/kg i.p. per day), or equivalent volume of DMSO vehicle (50 μL i.p. per day). […] Tumor size was measured 3 times a week using a caliper and calculated using the formula (smallest diameter^2 × largest diameter)/2. Mice were sacrificed 24 hours after the last injection. Mice were sacrificed when the largest tumors reached 2,500 mm^3. For TMD8 xenograft experiments, tumors and various organs, including lung, heart, liver, and kidney, were collected and fixed in 10% buffered formalin, embedded in FFPE blocks, sectioned, and stained with H&E. Sections were evaluated by a board-certified pathologist.
# WT C57BL/6 mice = assay: Flow cytometry of spleen immune cell subsets after 12 days of treatment; format: in vivo, mouse; details: 50 mg/kg, vs vehicle, result in words
# Method: Long-term in vivo toxicity experiments. WT C57/BL6 (The Jackson Laboratory) male and female mice were treated daily with 50 mg/kg M1i-124 or vehicle control for 28 days. At the time of sacrifice, blood was obtained for complete blood count, alanine transaminase, albumin, and total bilirubin (Abaxis). Livers from control and M1i-124 treated mice were collected for H&E analysis.
# Flow cytometry. Splenocytes were isolated from WT mice after 12 days of treatment with 50 mg/kg M1i-124 or vehicle control. After obtaining a single cell suspension using […] filter, cells were stained with viability dye (Tonbo Biosciences Ghost Red 780, Fisher Healthcare, Cat #50-105-2988). After blocking with mouse BD Fc BlockTM (BD Biosciences, Cat# 553141), splenocytes were stained with a panel of antibodies including antibodies from Invitrogen (anti-CD3 APC, Cat# […]
# 0251-82 and anti-NK1.1 PE-Cyanine 7 Cat#25-5941-82), an antibody from BD Bioscience (anti- […]
# and anti-CD4 BV711 Cat# 100557). Samples were run on a 5 laser LSR Fortessa flow cytometer and analyzed with FlowJo software.
# TMD8 cells = assay: CellTrace Violet dilution/cell division assay; format: cell-based, human; details: TMD8, 1 μM
# Method: (§1) Cell proliferation, viability, and apoptosis assays. […]
# (§2) CellTrace Violet reagent (ThermoFisher, Cat#
# (§3) C34571) was used as a cell division tracking dye for OCI-Ly1, OCI-Ly3, and TMD8 cells treated with 1 μM of compound M1i-124 or DMSO control, where the intensity of the staining decreases with each round of cell division. At days 0 and 6 after staining of DMSO- and compound-treated cells, CellTrace Violet fluorescence was measured on a BD LSR II instrument and Mean Fluorescent Intensity (MFI) was analyzed by FlowJo (version 10.8.0, BD). […]
# (§4) For CellTrace Violet, CellTiter-glo, and Annexin V apoptosis assays, cell were cultured in media with 50% of the usual serum. […]
# OCI-Ly3 cells = assay: CellTrace Violet dilution/cell division assay; format: cell-based, human; details: OCI-Ly3, 1 μM
# Method: as §1, §2, §3, §4
# OCI-Ly1 cells = assay: CellTrace Violet dilution/cell division assay; format: cell-based, human; details: OCI-Ly1, 1 μM
# Method: as §1, §2, §3, §4
# [1] = tested on: MALT1 protein in DLBCL cells; parameters: method as in PMID 30024860, PMID 23238017; details: result in words; cited from earlier work
# [2] = tested on: IL-2 secretion from Jurkat T cells; assay: Secreted IL-2 ELISA after PMA/Iono; format: cell-based, human; details: PMA/Iono treated, Suppl Fig. 4A
# [3] = 28 days, vs control, result in words
# T1 sequence (P35968 20-1356): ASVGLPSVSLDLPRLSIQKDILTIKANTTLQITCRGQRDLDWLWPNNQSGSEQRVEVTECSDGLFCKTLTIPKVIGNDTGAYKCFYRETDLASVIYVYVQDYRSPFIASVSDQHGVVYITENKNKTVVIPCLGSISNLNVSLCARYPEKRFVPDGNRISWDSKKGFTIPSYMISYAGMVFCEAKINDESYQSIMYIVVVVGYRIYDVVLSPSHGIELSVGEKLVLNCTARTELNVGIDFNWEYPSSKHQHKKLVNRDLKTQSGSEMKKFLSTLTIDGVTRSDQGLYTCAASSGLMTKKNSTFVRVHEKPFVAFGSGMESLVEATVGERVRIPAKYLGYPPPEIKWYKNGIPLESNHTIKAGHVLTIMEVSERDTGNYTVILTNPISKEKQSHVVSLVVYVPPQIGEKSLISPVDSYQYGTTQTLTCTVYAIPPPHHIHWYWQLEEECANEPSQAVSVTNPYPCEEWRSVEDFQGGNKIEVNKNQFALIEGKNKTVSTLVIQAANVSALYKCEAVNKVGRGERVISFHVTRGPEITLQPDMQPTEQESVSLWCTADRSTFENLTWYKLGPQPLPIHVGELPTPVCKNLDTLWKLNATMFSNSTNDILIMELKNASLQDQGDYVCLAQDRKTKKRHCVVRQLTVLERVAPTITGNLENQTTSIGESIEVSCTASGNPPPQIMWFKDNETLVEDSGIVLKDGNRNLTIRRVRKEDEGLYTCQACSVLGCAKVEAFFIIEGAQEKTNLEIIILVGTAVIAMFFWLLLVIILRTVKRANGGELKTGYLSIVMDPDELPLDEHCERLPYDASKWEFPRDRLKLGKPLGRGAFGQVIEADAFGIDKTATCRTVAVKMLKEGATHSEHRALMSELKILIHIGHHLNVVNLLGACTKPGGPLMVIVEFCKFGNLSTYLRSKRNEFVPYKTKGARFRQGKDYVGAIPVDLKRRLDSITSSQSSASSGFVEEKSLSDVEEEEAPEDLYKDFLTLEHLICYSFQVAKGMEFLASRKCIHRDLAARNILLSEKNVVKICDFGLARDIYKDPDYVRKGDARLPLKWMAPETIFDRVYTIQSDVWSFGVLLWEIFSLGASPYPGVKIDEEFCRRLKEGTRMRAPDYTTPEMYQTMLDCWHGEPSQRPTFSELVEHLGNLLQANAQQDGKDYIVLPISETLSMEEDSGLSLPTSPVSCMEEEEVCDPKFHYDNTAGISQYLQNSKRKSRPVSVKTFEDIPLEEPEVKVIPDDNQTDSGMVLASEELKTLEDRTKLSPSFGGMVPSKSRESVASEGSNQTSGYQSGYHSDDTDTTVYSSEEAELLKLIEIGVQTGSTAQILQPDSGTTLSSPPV
smiles,measurement,setting,value
O=S(=O)(NCc1ccc2c(c1)OCO2)c1ccc(Cc2ccc(S(=O)(=O)NCc3ccc4c(c3)OCO4)cc2)cc1 [M1i-124],Albumin,"C57BL/6 mice; 28 days, result in words",decrease in albumin
same,alanine transaminase or total bilirubin,"C57BL/6 mice; 28 days, result in words",did not result in a change
same,liver histology (H&E),"C57BL/6 mice; 28 days, result in words",no appreciable difference
same,"blood counts (white blood cell count, hemoglobin, platelet count)",C57BL/6 mice; [3],did not result in a statistically significant change
same,change in weight,C57BL/6 mice; [3],did not result in a statistically significant change
same,% change in body weight,"C57BL/6 mice; C57BL/6 mice, 50 mg/kg daily, 28 days, 50 mg/kg",9.778% and 0% and 8.3% and 7.514% and 2.89% and 0.5714% and 7.273% and 4.7619%
same,ALT,C57BL/6 mice; individual mice,35 U/L and 100 U/L and 26 U/L and 120 U/L and 180 U/L and 125 U/L
same,Albumin,C57BL/6 mice; individual mice,3.5 g/dL and 2.5 g/dL and 2.1 g/dL and 1.9 g/dL and 3.2 g/dL
same,Hemoglobin,C57BL/6 mice; individual mice,13.2 g/dL and 10.9 g/dL and 13.7 g/dL and 12.6 g/dL and 14 g/dL and 12 g/dL and 10.3 g/dL and 11.3 g/dL and 12.9 g/dL
same,Platelets,C57BL/6 mice; individual mice,439 10^9/L and 412 10^9/L and 524 10^9/L and 394 10^9/L and 557 10^9/L and 522 10^9/L and 479 10^9/L and 381 10^9/L and 186 10^9/L
same,Total Bilirubin,C57BL/6 mice; individual mice,0.3 mg/dL and 0.4 mg/dL and 0.2 mg/dL
same,WBC,C57BL/6 mice; individual mice,8.15 10^9/L and 3.97 10^9/L and 4.01 10^9/L and 2.58 10^9/L and 5.28 10^9/L and 4.82 10^9/L and 3.12 10^9/L and 3.23 10^9/L and 1.49 10^9/L
same,in vivo tolerability,C57BL/6 mice; result in words,well tolerated with minimal toxicity
same,pIC50,VEGFR2,< 5.00
same,Annexin (% positivity),"OCI-Ly7 cells; Ly7, individual replicates",27% and 16.65% and 14.5%
same,apoptosis of OCI-Ly7 cells,OCI-Ly7 cells; result in words,either no or minimal apoptotic response
same,OCI-Ly1 xenograft growth,OCI-Ly1 xenografts,no effect
same,percentage of total lymphocytes and specific lymphocyte populations within the spleen,WT C57BL/6 mice,no difference
same,activity at 1 µM,"TMD8 cells; Homo sapiens, TMD8, 144 h, day 6, read-out: CellTrace Violet dilution (Percent of Control)",42.2%
same,cell division,"TMD8 cells; 6 days, result in words",substantially reduced
same,CellTrace Violet dilution (Percent of Control),"TMD8 cells; day 6, 1 µM",48.11% of Control and 53.597% of Control and 42.644% of Control
same,cell division,"OCI-Ly3 cells; 6 days, result in words",substantially reduced
same,CellTrace Violet dilution (Percent of Control),"OCI-Ly3 cells; day 6, 1 µM",39.99% of Control and 46.66% of Control and 31.33% of Control and 60.69% of Control
same,activity at 1 µM,"OCI-Ly1 cells; Homo sapiens, OCI-Ly1, 144 h, day 6, read-out: CellTrace Violet dilution (Percent of Control)",73.1%
same,cell division,"OCI-Ly1 cells; 6 days, result in words",minimal effect
same,CellTrace Violet dilution (Percent of Control),"OCI-Ly1 cells; day 6, 1 µM",82.43% of Control and 74.14% of Control and 90.83% of Control
"CN1CCCC(CN2c3ccccc3Sc3ccccc32)C1 (centres unmarked) [Mepazine, mepazine, reference compound]",MALT1 protein level,[1],unaffected
same,activity at 5 µM,"[2]; Homo sapiens, Jurkat, read-out: IL-2 protein level (% of control)",29.9%
same,IL-2 protein level (% of control),[2]; 5 uM,22.8269 % of control and 31.0927 % of control
